These results are taken from article PMC9736856, “Biological Investigation and Chemical Study of Brassica villosa subsp. drepanensis (Brassicaeae) Leaves” (Molecules, 2022).

A short description of assay [1]: ABTS radical-scavenging assay. The following applies: cell free. The method, then:
In this assay, a solution of ABTS radical cations was mixed with a potassium persulphate solution and stored at room temperature for 12 h. The obtained solution was diluted with ethanol, read to obtain an absorbance of 0.70 at 734 nm, and added to the tested sample (1–400 μg/mL). After 6 min, the absorbance was read at 734 nm. Ascorbic acid was the positive control. The ABTS radical-scavenging ability was calculated with this equation: [(A0−A1)/A0] × 100, where A0 is the absorbance of the control and A1 is the absorbance in the presence of the samples.

The nature of assay [2]: β-carotene bleaching test. The method, then: The β-carotene bleaching test was performed following the procedure previously described, using propyl gallate as the positive control. […] The microplate was located in a water bath at 45 °C and the absorbance was read at 470 nm against a blank at t = 0 and after 30 and 60 min of incubation.
A short description of another assay: DPPH test. The following applies: positive control. The procedure:
Free radical-scavenging capacity was analysed through the ability of the total extract and the fractions to bleach the stable radical DPPH. […] Briefly, after 10 min at room temperature, the absorbance at λ = 517 nm of the DPPH reaction mixture containing different concentrations of […] extract (125-1000 μg/mL) in 1 mL of ethanol was recorded. Results, expressed as decrease in absorbance, represent the average ± S.D. of three independent experiments.

The next assay deals with CaCo-2 cells. Briefly: MTT assay, CaCo-2. The following applies: Homo sapiens, read-out: IC50 (MTT, cytotoxicity standard). It counts as cell-based. The method, then:
The human foreskin fibroblast cell line HFF-1 (ATCC® SCRC-1041.1) was maintained in DMEM supplemented with 15% v/v foetal bovine serum (FBS), 4.5 g/L glucose, 100 U/mL penicillin, and […] streptomycin. HFF-1 was used as an in vitro human model for preliminary toxicity screening. Mouse leukemic monocyte-macrophage cells RAW 264.7 (Sigma-Aldrich 91062702) were cultured in EMEM supplemented with 2 mM L-Glutamine (Euroclone, Milan, Italy), 1% non-essential amino acids, 10% FBS, and penicillin/streptomycin/amphotericin. […] was used as an in vitro model of LPS-induced inflammation. Human colon carcinoma cells CaCo-2 (ATCC®, HTB-37) were cultured in DMEM supplemented with 10% FBS, 1 mmol/L sodium pyruvate, 2 mmol/L L-glutamine, streptomycin ([…]), and penicillin (50 U/mL). […]
HFF-1, RAW 264.7, CaCo-2, DU145, 1321N1, and U87 MG cells were treated with different concentrations of total extract (25–50–100–150–250–500–1000 μg/mL), while RAW 264.7 cells were also treated with the fractions obtained from the total extract (EtOAc, n-BuOH, and H2O) at the same concentrations (25–50–100–150–250–500–1000 μg/mL) for 24 h. […] The absorbance of the converted formazan was measured using a microplate spectrophotometer reader (Titertek Multiskan, Flow Laboratories, Helsinki, Finland) at λ = 570 nm. […]

A short description of assay [3]: SOD-like activity (superoxide anion scavenging, NADH oxidation). The following applies: positive control. The method, then:
The scavenger effect of B. drepanensis extract and the fractions on superoxide anions was recorded as a decrease in absorbance at λ = 340 nm, as previously reported by Salerno et al.. […] SOD (80 mU) was used as a reference compound.

Take `O=C1O[C@H]([C@@H](O)CO)C(O)=C1O` [Ascorbic acid, ascorbic acid]: the “ABTS Test IC50” value in assay [1] was found to be 1.73 ± 0.06 µg/mL.

With `CCCOC(=O)c1cc(O)c(O)c(O)c1` [Propyl gallate, propyl gallate], the “β-Carotene Bleaching Test IC50” value in assay [2] (after 30 min of incubation) and in assay [2] (after 60 min of incubation) was 0.09 ± 0.04 µg/mL in each case.

As for `Cc1c(C)c2c(c(C)c1O)CCC(C)(C(=O)O)O2` (stereo not drawn) [Trolox], in “DPPH test”, the IC50 turned out to be 15 µM. For the compound `COc1cccc2c1C(=O)c1c(O)c3c(c(O)c1C2=O)C[C@@](O)(C(=O)CO)C[C@@H]3O[C@H]1C[C@H](N)[C@H](O)[C@H](C)O1` [doxorubicin, Doxorubicin], the IC50 in the assay on CaCo-2 cells amounted to 21 ± 0.3 µM. On to superoxide dismutase [SOD], for which the “SOD-like Activity IC50” value in assay [3] is listed as 40 mU ± 0.85.
